Experimental data: the NIST ThermoML archive (doi:10.1021/je300652k)

Conditions: Liquid, Pulse-echo method

FC(F)(F)C1(F)OC1(F)F (stereo unspecified) [2,2,3-trifluoro-3-(trifluoromethyl)oxirane]
Conditions | speed of sound [m/s]
253.15 K, 2510 kPa | 571.2
253.15 K, 10040 kPa | 623.9
253.15 K, 25020 kPa | 708
253.15 K, 50030 kPa | 816.7
253.15 K, 75010 kPa | 903.6
253.15 K, 100040 kPa | 977.8
253.15 K, 125040 kPa | 1043.1
253.15 K, 150010 kPa | 1101.9
253.15 K, 175030 kPa | 1155.8
253.15 K, 200030 kPa | 1205.6
253.15 K, 250060 kPa | 1295.5
253.15 K, 300100 kPa | 1376.5
253.15 K, 350000 kPa | 1449.2
253.15 K, 400120 kPa | 1516.7
283.15 K, 2500 kPa | 449.4
283.15 K, 9990 kPa | 517.5
283.15 K, 25000 kPa | 617.4
283.15 K, 49990 kPa | 737.8
283.15 K, 74990 kPa | 831.4
283.15 K, 100050 kPa | 910
283.15 K, 125050 kPa | 978.4
283.15 K, 150010 kPa | 1039.3
283.15 K, 175090 kPa | 1095.2
283.15 K, 200080 kPa | 1146.8
283.15 K, 250010 kPa | 1239.4
283.15 K, 300020 kPa | 1321.5
283.15 K, 350020 kPa | 1396.5
283.15 K, 400120 kPa | 1465.2
313.15 K, 2500 kPa | 326.6
313.15 K, 10010 kPa | 420.6
313.15 K, 25030 kPa | 538.8
313.15 K, 50010 kPa | 670.9
313.15 K, 75040 kPa | 769.9
313.15 K, 100050 kPa | 852
313.15 K, 125040 kPa | 922.8
313.15 K, 150070 kPa | 986.2
313.15 K, 175020 kPa | 1043.4
313.15 K, 200020 kPa | 1095.8
313.15 K, 250020 kPa | 1190.7
313.15 K, 300010 kPa | 1274.7
313.15 K, 350030 kPa | 1350.5
313.15 K, 400060 kPa | 1420.2
343.15 K, 10040 kPa | 332.6
343.15 K, 25050 kPa | 471.3
343.15 K, 50030 kPa | 614.1
343.15 K, 75030 kPa | 718
343.15 K, 100050 kPa | 803
343.15 K, 125030 kPa | 875.8
343.15 K, 150030 kPa | 940.5
343.15 K, 175010 kPa | 999.1
343.15 K, 200060 kPa | 1052.9
343.15 K, 250050 kPa | 1149.1
343.15 K, 299960 kPa | 1234.4
343.15 K, 350090 kPa | 1311.5
343.15 K, 400040 kPa | 1382.2
373.15 K, 10010 kPa | 255
373.15 K, 24970 kPa | 413.4
373.15 K, 50060 kPa | 565.5
373.15 K, 75000 kPa | 673
373.15 K, 100040 kPa | 760
373.15 K, 125040 kPa | 834.6
373.15 K, 150040 kPa | 900.3
373.15 K, 175000 kPa | 959.8
373.15 K, 200070 kPa | 1014.2
373.15 K, 249990 kPa | 1111.6
373.15 K, 300030 kPa | 1198
373.15 K, 350040 kPa | 1275.4
373.15 K, 400010 kPa | 1346.4
403.15 K, 20010 kPa | 322.5
403.15 K, 25020 kPa | 367.5
403.15 K, 50020 kPa | 525.9
403.15 K, 75050 kPa | 636.7
403.15 K, 100040 kPa | 725.7
403.15 K, 125010 kPa | 801.5
403.15 K, 150040 kPa | 868.4
403.15 K, 175040 kPa | 928.7
403.15 K, 200050 kPa | 983.8
403.15 K, 250040 kPa | 1082.6
403.15 K, 299980 kPa | 1169.6
403.15 K, 350040 kPa | 1247.9
403.15 K, 399990 kPa | 1319.9
